From patent US20040121941A1, “Novel inhibitors of prenylated pyrophosphate consuming enzymes” (priority 1999, published 2004)

Biological target: T1, protein:geranylgeranyl transferase-1 (PGGT-1) (Bos taurus, UniProt Q5EAD5)
T1 construct: A crude PGGT-1 preparation was isolated from bovine brain; from tissue; host or cells: bovine brain
Experiment: Protein:geranylgeranyl transferase-1 (PGGT-1) activity assay, [3H]-GGPP and sepharose-coupled peptide pepCsep
Format: biochemical
Conditions: PGGT activity in % of control (without analogue), bovine brain enzyme, Table I
Method: PFT activity was determined using a C-terminal peptide of pre-p21^N-ras coupled to sepharose beads as substrate (pepAsep) as described previously (Cohen et al. Biochem. Pharmacol. 57 (1999), 365-373). The experimental conditions (25 μL reaction mixture) were as follows: 80 pmol/25 μL sepharose-coupled peptide, 0.7 μM of [^3H]-FPP (American Radiolabeled Chemicals Inc.; specific radioactivity 15 Ci/mmol) and 13 μL of rat brain enzyme preparation. Incubation was performed at 37° C. for 30 min. For the determination of IC50 values of the FPP analogues, the assay was performed three times in the presence of different concentrations of compound 5 (example 1) in duplicate. Determination of PGGT-1 activity was performed in a similar manner as described for PFT activity and has also been described previously (Cohen et al. Biochem. Pharmacol. 57 (1999), 365-373). […] The experimental conditions were as follows: 25 μL incubation mixture contained 2.5 μL (1 nmol) pepCsep, 1 μM [^3H]-GGPP (American Radiolabeled Chemicals Inc.; specific radioactivity 15 Ci/mmol), 3 μL of bovine brain enzyme preparation, 50 μM ZnCl2, 0.5 mM MgCl2, 1 mM dithiothreitol, 0.004% Triton X-100, 50 mM Tris-HCl (pH 7.4). […]
The radioactivity bound to the sepharose was strongly dependent on the presence of the cysteine residue in pepCsep and the reaction was linear up to 40 min and up to 5 μL of the enzyme preparation. […]

For “[Bis(benzyloxycarbonyl)lysyl]-[ε-aminocaproyl]-[β-(nitrophenylaminocarbonyl)-β-alanyl]-[phosphoserine] [compound 378]”, the “relative activity at 10 μM” value (compound at 10 μM) was 36 ± 9% and the “relative activity at 100 μM” value (compound at 100 μM) was 28 ± 5%.
